Data reported in the NIST ThermoML archive (doi:10.1021/je700260f).
± gives the expanded uncertainty stated by the source.

Conditions: 323.15 K, Liquid, Vibrating tube method

FC(C(F)(F)F)C(F)(F)F [1,1,1,2,3,3,3-heptafluoropropane]
Conditions | mass density [kg/m3]
24369 kPa | 1441.6 ± 1.6
24448 kPa | 1441.9 ± 1.6
24476 kPa | 1442 ± 1.6
24507 kPa | 1442.1 ± 1.6
24535 kPa | 1442.3 ± 1.6
24630 kPa | 1442.7 ± 1.6
25178 kPa | 1445.1 ± 1.6
25221 kPa | 1445.2 ± 1.6
25254 kPa | 1445.3 ± 1.6
25279 kPa | 1445.5 ± 1.6
25317 kPa | 1445.6 ± 1.6
25347 kPa | 1445.8 ± 1.6
25380 kPa | 1445.9 ± 1.6
25479 kPa | 1446.3 ± 1.6
25518 kPa | 1446.5 ± 1.6
25548 kPa | 1446.5 ± 1.6
25582 kPa | 1446.8 ± 1.6
25619 kPa | 1447 ± 1.6
25648 kPa | 1447.1 ± 1.6
25678 kPa | 1447.1 ± 1.6
25713 kPa | 1447.3 ± 1.6
25743 kPa | 1447.4 ± 1.6
25772 kPa | 1447.5 ± 1.6
25810 kPa | 1447.7 ± 1.6
25835 kPa | 1447.8 ± 1.6
25868 kPa | 1447.9 ± 1.6
25896 kPa | 1448 ± 1.6
25923 kPa | 1448.1 ± 1.6
26006 kPa | 1448.7 ± 1.6
26035 kPa | 1448.7 ± 1.6
26099 kPa | 1449 ± 1.6
26134 kPa | 1449.1 ± 1.6
26161 kPa | 1449.1 ± 1.6
26196 kPa | 1449.4 ± 1.6
26255 kPa | 1449.6 ± 1.6
26288 kPa | 1449.7 ± 1.6
27476 kPa | 1454.6 ± 1.7
27515 kPa | 1454.7 ± 1.7
27549 kPa | 1454.9 ± 1.7
27579 kPa | 1455 ± 1.7
27618 kPa | 1455.2 ± 1.7
27658 kPa | 1455.4 ± 1.7
27685 kPa | 1455.4 ± 1.7
27721 kPa | 1455.7 ± 1.7
27748 kPa | 1455.7 ± 1.7
27786 kPa | 1455.9 ± 1.7
27821 kPa | 1456 ± 1.7
27852 kPa | 1456 ± 1.7
27887 kPa | 1456.3 ± 1.7
27918 kPa | 1456.3 ± 1.7
27943 kPa | 1456.5 ± 1.7
27982 kPa | 1456.6 ± 1.7
28017 kPa | 1456.8 ± 1.7
28049 kPa | 1456.7 ± 1.7
28080 kPa | 1457 ± 1.7
28115 kPa | 1457.1 ± 1.7
28148 kPa | 1457.2 ± 1.7
28180 kPa | 1457.4 ± 1.7
28217 kPa | 1457.6 ± 1.7
28245 kPa | 1457.7 ± 1.7
28276 kPa | 1457.9 ± 1.7
28309 kPa | 1457.9 ± 1.7
28337 kPa | 1458 ± 1.7
28375 kPa | 1458.1 ± 1.7
28403 kPa | 1458.3 ± 1.7
28445 kPa | 1458.5 ± 1.7
28474 kPa | 1458.6 ± 1.7
28506 kPa | 1458.7 ± 1.7
28534 kPa | 1458.7 ± 1.7
28571 kPa | 1459 ± 1.7
28603 kPa | 1459.1 ± 1.7
28633 kPa | 1459.2 ± 1.7
28660 kPa | 1459.4 ± 1.7
28691 kPa | 1459.5 ± 1.7
28718 kPa | 1459.6 ± 1.7
28763 kPa | 1459.8 ± 1.7
28799 kPa | 1459.9 ± 1.7
28837 kPa | 1459.9 ± 1.7
28870 kPa | 1460.1 ± 1.7
28904 kPa | 1460.2 ± 1.7
28935 kPa | 1460.4 ± 1.7
28970 kPa | 1460.5 ± 1.7
28997 kPa | 1460.6 ± 1.7
29033 kPa | 1460.8 ± 1.7
29063 kPa | 1460.9 ± 1.7
29088 kPa | 1460.9 ± 1.7
29121 kPa | 1461.1 ± 1.7
29162 kPa | 1461.2 ± 1.7
29188 kPa | 1461.4 ± 1.7
29756 kPa | 1463.5 ± 1.7
29784 kPa | 1463.7 ± 1.7
29822 kPa | 1463.8 ± 1.7
29860 kPa | 1464 ± 1.7
29886 kPa | 1464 ± 1.7
29919 kPa | 1464.2 ± 1.7
29949 kPa | 1464.3 ± 1.7
30616 kPa | 1466.8 ± 1.7
30653 kPa | 1467 ± 1.7
30689 kPa | 1467.1 ± 1.7
30736 kPa | 1467.2 ± 1.7
30764 kPa | 1467.3 ± 1.7
30805 kPa | 1467.5 ± 1.7
